# Results reported in ChEMBL document CHEMBL1201862, “PubChem BioAssay data set” (2004).
#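 96-well plates; 48 h exposure; 5 concentrations. Endpoints by linear interpolation between flanking doses. Not reached: highest tested concentration assigned. GI50 is the concentration that inhibits growth by half.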 The source made the active and inactive calls. No stated cut-off is given here; in the data, active = GI50 up to about 1.1 µM and inactive = higher.
# Tests used:
# Assay in all cases: inhibition of tumour cell growth, NCI panel, 48 h
# SR = tested on: SR
# NCI-H522 = tested on: NCI-H522
# LXFL 529 = tested on: LXFL 529
# KM12 = tested on: KM12
# NCI-H23 = tested on: NCI-H23
# COLO 205 = tested on: COLO 205
# TK-10 = tested on: TK-10
# OVCAR-3 = tested on: OVCAR-3
# SF-295 = tested on: SF-295
# HT-29 = tested on: HT-29
# OVCAR-5 = tested on: OVCAR-5
# SN12C = tested on: SN12C
# HCC 2998 = tested on: HCC 2998
# Malme-3M = tested on: Malme-3M
# DMS-273 = tested on: DMS-273
# SK-MEL-5 = tested on: SK-MEL-5
# SK-MEL-2 = tested on: SK-MEL-2
# HOP-18 = tested on: HOP-18
# A498 = tested on: A498
# A549 = tested on: A549
# DLD-1 = tested on: DLD-1
# SNB-19 = tested on: SNB-19
# RXF 393 = tested on: RXF 393
# KM-20L2 = tested on: KM-20L2
# RPMI-8226 = tested on: RPMI-8226
# M19-MEL = tested on: M19-MEL
# ACHN = tested on: ACHN
# MOLT-4 = tested on: MOLT-4
# OVCAR-4 = tested on: OVCAR-4
# M14 = tested on: M14
# UACC-62 = tested on: UACC-62
# OVCAR-8 = tested on: OVCAR-8
# SK-OV-3 = tested on: SK-OV-3
# U-251 = tested on: U-251
# CAKI-1 = tested on: CAKI-1
# IGROV-1 = tested on: IGROV-1
# HCT-116 = tested on: HCT-116
# HCT-15 = tested on: HCT-15
# DMS-114 = tested on: DMS-114
# LOX IMVI = tested on: LOX IMVI
# K562 = tested on: K562
# 786-0 = tested on: 786-0
# SF-268 = tested on: SF-268
# NCI-H460 = tested on: NCI-H460
# UO-31 = tested on: UO-31
# HOP-62 = tested on: HOP-62
# CCRF-CEM = tested on: CCRF-CEM
# HOP-92 = tested on: HOP-92
# SF-539 = tested on: SF-539
# SNB-75 = tested on: SNB-75
# HL-60 = tested on: HL-60
# SW-620 = tested on: SW-620
# SK-MEL-28 = tested on: SK-MEL-28
compound,measurement,setting,value
CN(C)c1ccc(/C=C2\C=Cc3ccccc32)cc1,GI50,SR,32.4 µM (inactive)
same,GI50,NCI-H522,17.3 µM (inactive)
same,GI50,LXFL 529,56.4 µM (inactive)
same,GI50,KM12,49.7 µM (inactive)
same,GI50,NCI-H23,35.6 µM (inactive)
same,GI50,COLO 205,58.6 µM (inactive)
same,GI50,TK-10,> 100 µM (inactive)
same,GI50,OVCAR-3,73.6 µM (inactive)
same,GI50,SF-295,34.3 µM (inactive)
same,GI50,HT-29,40.4 µM (inactive)
same,GI50,OVCAR-5,> 100 µM (inactive)
same,GI50,SN12C,39.9 µM (inactive)
same,GI50,HCC 2998,78 µM (inactive)
same,GI50,Malme-3M,> 100 µM (inactive)
same,GI50,DMS-273,36.7 µM (inactive)
same,GI50,SK-MEL-5,36.3 µM (inactive)
same,GI50,SK-MEL-2,90.6 µM (inactive)
same,GI50,HOP-18,> 100 µM (inactive)
same,GI50,A498,42.7 µM (inactive)
same,GI50,A549,76.6 µM (inactive)
same,GI50,DLD-1,51.8 µM (inactive)
same,GI50,SNB-19,59.2 µM (inactive)
same,GI50,RXF 393,17.9 µM (inactive)
same,GI50,KM-20L2,42.6 µM (inactive)
same,GI50,RPMI-8226,35.3 µM (inactive)
same,GI50,M19-MEL,> 100 µM (inactive)
same,GI50,ACHN,> 100 µM (inactive)
same,GI50,MOLT-4,32.1 µM (inactive)
same,GI50,OVCAR-4,50.5 µM (inactive)
same,GI50,M14,29.2 µM (inactive)
same,GI50,UACC-62,42.3 µM (inactive)
same,GI50,OVCAR-8,94.8 µM (inactive)
same,GI50,SK-OV-3,45.9 µM (inactive)
same,GI50,U-251,55 µM (inactive)
same,GI50,CAKI-1,78 µM (inactive)
same,GI50,IGROV-1,53.7 µM (inactive)
same,GI50,HCT-116,33.1 µM (inactive)
same,GI50,HCT-15,34.6 µM
same,GI50,DMS-114,22.1 µM (inactive)
same,GI50,LOX IMVI,47.2 µM (inactive)
same,GI50,K562,28.8 µM (inactive)
same,GI50,786-0,61 µM (inactive)
same,GI50,SF-268,45.1 µM (inactive)
same,GI50,NCI-H460,39.4 µM (inactive)
same,GI50,UO-31,20.2 µM (inactive)
same,GI50,HOP-62,> 100 µM (inactive)
same,GI50,CCRF-CEM,43.2 µM (inactive)
same,GI50,HOP-92,44.5 µM (inactive)
same,GI50,SF-539,50.7 µM (inactive)
same,GI50,SNB-75,11.3 µM (inactive)
same,GI50,HL-60,27.9 µM (inactive)
same,GI50,SW-620,38.1 µM (inactive)
same,GI50,SK-MEL-28,43.6 µM (inactive)
NC1=NS(=O)(=O)Nc2nc(-c3cccs3)[nH]c21,GI50,SR,> 100 µM (inactive)
same,GI50,NCI-H522,> 100 µM (inactive)
same,GI50,LXFL 529,> 100 µM (inactive)
same,GI50,KM12,> 100 µM (inactive)
same,GI50,NCI-H23,> 100 µM (inactive)
same,GI50,COLO 205,> 100 µM (inactive)
same,GI50,TK-10,> 100 µM (inactive)
same,GI50,OVCAR-3,> 100 µM (inactive)
same,GI50,SF-295,> 100 µM (inactive)
same,GI50,HT-29,> 100 µM (inactive)
same,GI50,OVCAR-5,> 100 µM (inactive)
same,GI50,SN12C,> 100 µM (inactive)
same,GI50,HCC 2998,> 100 µM (inactive)
same,GI50,Malme-3M,> 100 µM (inactive)
same,GI50,DMS-273,> 100 µM (inactive)
same,GI50,SK-MEL-5,> 100 µM (inactive)
same,GI50,SK-MEL-2,> 100 µM (inactive)
same,GI50,HOP-18,> 100 µM (inactive)
same,GI50,A498,> 100 µM (inactive)
same,GI50,A549,> 100 µM (inactive)
same,GI50,DLD-1,> 100 µM (inactive)
same,GI50,SNB-19,> 100 µM (inactive)
same,GI50,RXF 393,> 100 µM (inactive)
same,GI50,KM-20L2,> 100 µM (inactive)
same,GI50,RPMI-8226,> 100 µM (inactive)
same,GI50,M19-MEL,> 100 µM (inactive)
same,GI50,ACHN,> 100 µM (inactive)
same,GI50,MOLT-4,> 100 µM (inactive)
same,GI50,OVCAR-4,> 100 µM (inactive)
same,GI50,M14,> 100 µM (inactive)
same,GI50,UACC-62,> 100 µM (inactive)
same,GI50,OVCAR-8,> 100 µM (inactive)
same,GI50,SK-OV-3,> 100 µM (inactive)
same,GI50,U-251,> 100 µM (inactive)
same,GI50,CAKI-1,> 100 µM (inactive)
same,GI50,IGROV-1,> 100 µM (inactive)
same,GI50,HCT-116,> 100 µM (inactive)
same,GI50,HCT-15,> 100 µM
same,GI50,LOX IMVI,> 100 µM (inactive)
same,GI50,K562,> 100 µM (inactive)
same,GI50,786-0,> 100 µM (inactive)
same,GI50,SF-268,> 100 µM (inactive)
same,GI50,NCI-H460,> 100 µM (inactive)
same,GI50,UO-31,> 100 µM (inactive)
same,GI50,HOP-62,> 100 µM (inactive)
same,GI50,CCRF-CEM,> 100 µM (inactive)
same,GI50,HOP-92,> 100 µM (inactive)
same,GI50,SF-539,> 100 µM (inactive)
same,GI50,SNB-75,> 100 µM (inactive)
same,GI50,HL-60,> 100 µM (inactive)
same,GI50,SW-620,> 100 µM (inactive)
same,GI50,SK-MEL-28,> 100 µM (inactive)
